# Read-outs that look alike come from different tables or passages of the source.
# What was measured:
# Human venous whole blood = assay: Human Whole Blood IFN-γ Assay; assay type: cell-based
# Description: Human venous whole blood (22.5 μL per well), obtained from healthy donors, was pre-treated with compounds for one hour at 37° C. in a humidified 95% air/5% CO2 incubator. The blood was stimulated with 2.5 μL anti-human CD3 and anti-CD28 mAb at a final concentration of 1 μg/mL each for 24 hours at 37° C. IFN-γ in the supernatants was measured using AlphaLISA kit (Cat #AL217).
# naïve human CD8 T cells [1] = assay: CellTiter-Glo CD8 T Cell Proliferation Assay; assay type: cell-based; conditions: Homo sapiens, T-cell, CellTiter-Glo CD8 T cell proliferation, normalized; read-out: CD8 GLO normalized EC50
# [2] = system: pre-activated CD4 T cells and Raji cells; assay: Raji CD4 T Cell IL2 Assay; assay type: cell-based
# naïve human CD8 T cells [3] = assay: cells; conditions: 3 μM Example 40 co-stimulation as 100% activation
# Summary of the method: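 Thawed frozen cells, 40,000/well, stimulated on plate-bound anti-CD3 (coated at 0.05 μg/mL) plus soluble anti-CD28 0.1 μg/mL; compounds added immediately after plating. After 20 h at 37° C., supernatant IFN-γ quantitated by AlphaLISA, counts converted to IFN-γ concentration […].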
# naïve human CD8 T cells [4] = assay: Human CD8 T cells pERK Assay; assay type: cell-based; conditions: T-cell, read-out: HuCD8 pERK IC50
# Description: Frozen naïve human CD8 T cells were thawed in AIM-V media, incubated for 2 h in 37° C., and counted. The CD8 positive T cells were added to 384-well tissue culture plate at 20,000 cells per well in AIM-V media. One compound was added to each well, then bead bound anti-human CD3 and anti-CD28 mAb were added at final concentration of 0.3 μg/mL. The cells were incubated at 37° C. for 10 minutes. The reaction was stopped by adding lysis buffer from the AlphaLISA Surefire kit. (Perkin Elmer, cat #ALSU-PERK-A). Lysate (5 μL per well) was transferred into a new 384-well white assay plate for pERK activation measurement.
# [5] = Homo sapiens, human whole blood, anti-CD3 plus anti-CD28 as baseline, 3 μM Example 40 co-stimulation as 100% activation, read-out: INF-γ Whole Blood Normalized Agonist EC50
# [6] = Homo sapiens, T-cell, read-out: HuCD8 INFG Normalized EC50, anti-CD3 plus anti-CD28 as baseline
# [7] = Homo sapiens, read-out: INF-γ Whole Blood Agonist EC50
# [8] = human whole blood, anti-CD3 plus anti-CD28 as baseline, 3 μM Example 40 co-stimulation as 100% activation, read-out: INF-γ Whole Blood Normalized Agonist EC50
# [9] = read-out: HuCD8 INFG Normalized EC50, anti-CD3 plus anti-CD28 as baseline
SMILES,EC50 (Human venous whole blood; [5]) [nM],EC50 (naïve human CD8 T cells [3]; [6]) [nM],other results
"COc1ccc2c(n1)c(N1CCN(C(c3ccc(F)cc3)c3ccc(F)cc3OC)CC1)c(C#N)c(=O)n2C (racemic) [Example 412, 4-{4-[(4-fluoro-2-methoxyphenyl)(4-fluorophenyl)methyl]piperazin-1-yl}-6-methoxy-1-methyl-2-oxo-1,2-dihydro-1,5-naphthyridine-3-carbonitrile]",3010,,EC50 (naïve human CD8 T cells [1]): 300 nM
"COc1ccccc1C(c1ccc(F)cc1)N1CCN(c2c(C#N)c(=O)n(C)c3ccc(Br)nc23)CC1 (single isomer, unassigned) [Example 13, 6-bromo-4-{4-[(4-fluorophenyl)(2-methoxyphenyl)methyl]piperazin-1-yl}-1-methyl-2-oxo-1,2-dihydro-1,5-naphthyridine-3-carbonitrile]",5000,10000,IC50 [2]: > 100000 nM
"COc1cc(F)ccc1C(c1ccc(F)cc1)N1CCN(c2c(C#N)c(=O)n(C)c3ccc(Br)nc23)CC1 (single isomer, unassigned) [Example 17, 6-bromo-4-{4-[(4-fluoro-2-methoxyphenyl)(4-fluorophenyl)methyl]piperazin-1-yl}-1-methyl-2-oxo-1,2-dihydro-1,5-naphthyridine-3-carbonitrile]",1150,520,EC50 (Human venous whole blood; [7]): 670 nM
"CC(c1ccc(F)cc1)N1CCN(c2c([N+](=O)[O-])c(=O)n(C)c3ccc(C#N)nc23)CC1 (single isomer, unassigned) [Example 44, 8-(4-(1-(4-fluorophenyl)ethyl)piperazin-1-yl)-5-methyl-7-nitro-6-oxo-5,6-dihydro-1,5-naphthyridine-2-carbonitrile]",900,180,
"C#CCn1c(=O)c([N+](=O)[O-])c(N2CCN(C(c3ccc(F)cc3)c3ccc(F)cc3O)CC2)c2nc(C#N)ccc21 (single isomer, unassigned) [Example 121, 8-(4-((4-fluoro-2-hydroxyphenyl)(4-fluorophenyl)methyl)piperazin-1-yl)-7-nitro-6-oxo-5-(prop-2-yn-1-yl)-5,6-dihydro-1,5-naphthyridine-2-carbonitrile]",550,,
"COc1cc(F)ccc1C(c1ccc(F)cc1)N1CCN(c2c([N+](=O)[O-])c(=O)n(C)c3ccc(C#N)nc23)CC1 (single isomer, unassigned) [Example 124, 8-(4-((4-fluoro-2-methoxyphenyl)(4-fluorophenyl)methyl)piperazin-1-yl)-5-methyl-7-nitro-6-oxo-5,6-dihydro-1,5-naphthyridine-2-carbonitrile]",100,10,IC50 (naïve human CD8 T cells [4]): 360 nM; EC50 (Human venous whole blood; [7]): 140 nM; EC50 (naïve human CD8 T cells [1]): 20 nM
"C#CCn1c(=O)c([N+](=O)[O-])c(N2CCN(C(C)c3ccc(F)cc3)CC2)c2nc(C#N)ccc21 (single isomer, unassigned) [Example 136, 8-(4-(1-(4-fluorophenyl)ethyl)piperazin-1-yl)-7-nitro-6-oxo-5-(prop-2-yn-1-yl)-5,6-dihydro-1,5-naphthyridine-2-carbonitrile]",,,EC50 (Human venous whole blood; [8]): 1160 nM
"C#CCn1c(=O)c([N+](=O)[O-])c(N2CCN(C(C)c3ccc(F)cc3)CC2)c2nc(C#N)ccc21 (single isomer, unassigned) [Example 137, 8-(4-(1-(4-fluorophenyl)ethyl)piperazin-1-yl)-7-nitro-6-oxo-5-(prop-2-yn-1-yl)-5,6-dihydro-1,5-naphthyridine-2-carbonitrile]",,40,EC50 (Human venous whole blood; [8]): 5000 nM
"C#CCn1c(=O)c([N+](=O)[O-])c(N2CCN(C(CC)c3ccc(F)cc3)CC2)c2nc(C#N)ccc21 (single isomer, unassigned) [Example 141, 8-{4-[1-(4-fluorophenyl)propyl]piperazin-1-yl}-7-nitro-6-oxo-5-(prop-2-yn-1-yl)-5,6-dihydro-1,5-naphthyridine-2-carbonitrile]",,30,EC50 (naïve human CD8 T cells [1]): 10 nM
"C#CCn1c(=O)c([N+](=O)[O-])c(N2CCN(C(c3ccc(F)cc3)C3CC3)CC2)c2nc(C#N)ccc21 (single isomer, unassigned) [Example 143, 8-(4-(cyclopropyl(4-fluorophenyl)methyl)piperazin-1-yl)-7-nitro-6-oxo-5-(prop-2-yn-1-yl)-5,6-dihydro-1,5-naphthyridine-2-carbonitrile]",,90,IC50 (naïve human CD8 T cells [4]): 60 nM; EC50 (naïve human CD8 T cells [1]): 10 nM
"COc1cc(F)ccc1C(c1ccc(F)cc1)N1CCN(c2c(C#N)c(=O)n(C)c3ccc(C#N)nc23)CC1 (single isomer, unassigned) [Example 406, 8-{4-[(4-fluoro-2-methoxyphenyl)(4-fluorophenyl)methyl]piperazin-1-yl}-5-methy-6-oxo-5,6-dihydro-L5-naphthyridine-2,7-dicarbonitrile]",,,EC50 (Human venous whole blood; [8]): 2190 nM; EC50 (naïve human CD8 T cells [3]; [9]): 410 nM
"COc1cc(F)ccc1C(c1ccc(F)cc1)N1CCN(c2c(C#N)c(=O)n(C)c3ccc(C#N)nc23)CC1 (single isomer, unassigned) [Example 407, 8-{4-[(4-fluoro-2-methoxyphenyl)(4-fluorophenyl)methyl]piperazin-1-yl}-5-methy-6-oxo-5,6-dihydro-L5-naphthyridine-2,7-dicarbonitrile]",,,EC50 (Human venous whole blood; [8]): 780 nM; EC50 (naïve human CD8 T cells [3]; [9]): 120 nM
"Cc1ccc(CN2CCN(c3c(C#N)c(=O)n(C)c4ccc(Br)nc34)CC2)c(O)c1 [Example 372, 6-bromo-4-{4-[(2-hydroxy-4-methylphenyl)methyl]piperazin-1-yl}-1-methyl-2-oxo-1,2-dihydro-1,5-naphthyridine-3-carbonitrile]",5000,,"IC50 ([2]; Homo sapiens, Raji): > 100000 nM"
"Cc1ccc(CN2CCN(c3c(C#N)c(=O)n(C)c4ccc(Cl)nc34)CC2)cc1 [Example 386, 6-chloro-1-methyl-4-{4-[(4-methylphenyl)methyl]piperazin-1-yl}-2-oxo-1,2-dihydro-1,5-naphthyridine-3-carbonitrile]",1240,960,
"Cc1cccc(CN2CCN(c3c(C#N)c(=O)n(C)c4ccc(Cl)nc34)CC2)c1O [Example 391, 6-chloro-4-{4-[(2-hydroxy-3-methylphenyl)methyl]piperazin-1-yl}-1-methyl-2-oxo-1,2-dihydro-1,5-naphthyridine-3-carbonitrile]",3500,,
"Cc1ccc(CN2CCN(c3c(C#N)c(=O)n(C)c4ccc(Cl)nc34)CC2)c(F)c1 [Example 423, 6-chloro-4-{4-[(2-fluoro-4-methylphenyl)methyl]piperazin-1-yl}-1-methyl-2-oxo-1,2-dihydro-1,5-naphthyridine-3-carbonitrile]",10000,460,"IC50 ([2]; Homo sapiens, Raji): > 100000 nM"
"Cn1c(=O)c(C#N)c(N2CCN(C(C)(C)c3ccc(F)cc3)CC2)c2nc(Cl)ccc21 [Example 425, 6-chloro-4-{4-[2-(4-fluorophenyl)propan-2-yl]piperazin-1-yl}-1-methyl-2-oxo-1,2-dihydro-1,5-naphthyridine-3-carbonitrile]",10000,,"IC50 ([2]; Homo sapiens, Raji): > 100000 nM; EC50 (naïve human CD8 T cells [1]): 190 nM"

# From patent US11866430B2, “Naphthyridinone compounds useful as T cell activators” (priority 2018, dated 2024)
